pIC50: −log10 of the molar value. Positions of bridges follow the written chain, without caps; N, C: chain ends. Non-standard residues stand in square brackets, D forms with d. Residues, ends and D or L forms follow the SMILES beside them. Ala(morpholin-4-yl) = N[C@@H](CN1CCOCC1)C(=O)O; Bip = N[C@@H](Cc1ccc(-c2ccccc2)cc1)C(=O)O; Val(3-OH) = CC(C)(O)[C@H](N)C(=O)O; Sar = CNCC(=O)O
Each molecule was assayed against TNFα (Homo sapiens, UniProt P01375) (assay: TNF-Induced HEK-Blue Assay). Settings: HEK-Blue-CD40L cells, NF-kB-driven secreted alkaline phosphatase reporter; TNFα 0.5 ng/ml; 18 h; read-out: TNF induced HEK-Blue assay IC50 value.
TNFα, sequence (P01375 77-233 limits assumed): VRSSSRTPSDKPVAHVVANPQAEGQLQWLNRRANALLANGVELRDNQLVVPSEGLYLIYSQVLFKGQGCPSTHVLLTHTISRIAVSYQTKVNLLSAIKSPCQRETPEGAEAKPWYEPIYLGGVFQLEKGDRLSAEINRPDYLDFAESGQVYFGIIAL
Format: cell-based

pIC50	SMILES
5.70 to 6.70	CC(C)C[C@@H]1NC(=O)[C@H](CCCNC(=N)N)NC(=O)[C@H](C(C)C)NC(=O)CNC(=O)[C@H](C(C)C)NC(=O)[C@H](CCCNC(=N)N)NC(=O)[C@H](CC(=O)O)NC(=O)[C@H](Cc2ccc(O)cc2)NC(=O)CN(C)C(=O)[C@H](Cc2ccc(-c3ccccc3)cc2)NC(=O)[C@H](Cc2ccc(-c3ccccc3)cc2)NC(=O)[C@H](CN2CCOCC2)NC(=O)CSC[C@@H](C(=O)NCC(N)=O)NC1=O [Example 138] ({CH2CO}-[Ala(morpholin-4-yl)][Bip][Bip][Sar]YDRVGVRLCG-NH2; thioether N-13)
5.70 to 6.70	CC(C)C[C@@H]1NC(=O)[C@H](Cc2ccc(O)cc2)NC(=O)[C@H](C(C)C)NC(=O)CNC(=O)[C@H](C(C)C)NC(=O)[C@H](CCCNC(=N)N)NC(=O)[C@H](CC(=O)O)NC(=O)[C@@H]2CCCN2C(=O)CN(C)C(=O)[C@H](Cc2ccc(-c3ccccc3)cc2)NC(=O)[C@H](Cc2ccc(-c3ccccc3)cc2)NC(=O)[C@H](CN2CCOCC2)NC(=O)CSC[C@@H](C(=O)NCC(N)=O)NC1=O [Example 139] ({CH2CO}-[Ala(morpholin-4-yl)][Bip][Bip][Sar]PDRVGVYLCG-NH2; thioether N-13)
5.70 to 6.70	CC(C)C[C@@H]1NC(=O)[C@H](Cc2ccc(O)cc2)NC(=O)[C@H](C(C)C)NC(=O)CN(C)C(=O)[C@H](C(C)C)NC(=O)[C@H](CCCNC(=N)N)NC(=O)[C@H](CC(=O)O)NC(=O)[C@H](Cc2ccc(O)cc2)NC(=O)CN(C)C(=O)[C@H](Cc2ccc(-c3ccccc3)cc2)NC(=O)[C@H](Cc2ccc(-c3ccccc3)cc2)NC(=O)[C@H](C(C)(C)O)NC(=O)CSC[C@@H](C(=O)NCC(N)=O)NC1=O [Example 140] ({CH2CO}-[Val(3-OH)][Bip][Bip][Sar]YDRV[Sar]VYLCG-NH2; thioether N-13)

The next lines start with the molecule.

SMILES	pIC50
CC(C)C[C@@H]1NC(=O)[C@H](Cc2ccc(O)cc2)NC(=O)[C@H](C(C)C)NC(=O)CN(C)C(=O)[C@H](C(C)C)NC(=O)[C@@H](CCCNC(=N)N)NC(=O)[C@H](CC(=O)O)NC(=O)[C@H](Cc2ccc(O)cc2)NC(=O)CN(C)C(=O)[C@H](Cc2ccc(-c3ccccc3)cc2)NC(=O)[C@H](Cc2ccc(-c3ccccc3)cc2)NC(=O)[C@H](CN2CCOCC2)NC(=O)CSC[C@@H](C(=O)NCC(N)=O)NC1=O [Example 134] ({CH2CO}-[Ala(morpholin-4-yl)][Bip][Bip][Sar]YD[dR]V[Sar]VYLCG-NH2; thioether N-13)	6.70 to 7.30
CC(C)C[C@@H]1NC(=O)[C@H](CCCNC(=N)N)NC(=O)[C@H](C(C)C)NC(=O)CN(C)C(=O)[C@H](C(C)C)NC(=O)[C@@H](CCCNC(=N)N)NC(=O)[C@H](CC(=O)O)NC(=O)[C@H](Cc2ccc(O)cc2)NC(=O)CN(C)C(=O)[C@H](Cc2ccc(-c3ccccc3)cc2)NC(=O)[C@H](Cc2ccc(-c3ccccc3)cc2)NC(=O)[C@H](CN2CCOCC2)NC(=O)CSC[C@@H](C(=O)NCC(N)=O)NC1=O [Example 135] ({CH2CO}-[Ala(morpholin-4-yl)][Bip][Bip][Sar]YD[dR]V[Sar]VRLCG-NH2; thioether N-13)	5.70 to 6.70
CC(C)C[C@@H]1NC(=O)[C@H](Cc2ccc(O)cc2)NC(=O)[C@H](C(C)C)NC(=O)CN(C)C(=O)[C@H](C(C)C)NC(=O)[C@@H](CCCNC(=N)N)NC(=O)[C@H](CC(=O)O)NC(=O)[C@@H]2CCCN2C(=O)CN(C)C(=O)[C@H](Cc2ccc(-c3ccccc3)cc2)NC(=O)[C@H](Cc2ccc(-c3ccccc3)cc2)NC(=O)[C@H](CN2CCOCC2)NC(=O)CSC[C@@H](C(=O)NCC(N)=O)NC1=O [Example 136] ({CH2CO}-[Ala(morpholin-4-yl)][Bip][Bip][Sar]PD[dR]V[Sar]VYLCG-NH2; thioether N-13)	6.70 to 7.30
CC(C)C[C@@H]1NC(=O)[C@H](Cc2ccc(O)cc2)NC(=O)[C@H](C(C)C)NC(=O)CNC(=O)[C@H](C(C)C)NC(=O)[C@@H](CCCNC(=N)N)NC(=O)[C@H](CC(=O)O)NC(=O)[C@H](Cc2ccc(O)cc2)NC(=O)CN(C)C(=O)[C@H](Cc2ccc(-c3ccccc3)cc2)NC(=O)[C@H](Cc2ccc(-c3ccccc3)cc2)NC(=O)[C@H](CN2CCOCC2)NC(=O)CSC[C@@H](C(=O)NCC(N)=O)NC1=O [Example 137] ({CH2CO}-[Ala(morpholin-4-yl)][Bip][Bip][Sar]YD[dR]VGVYLCG-NH2; thioether N-13)	5.70 to 6.70
